# Reference: US20250136641A1, “PEPTIDES AND COMPOSITIONS FOR USE IN COSMETICS, FOOD AND MEDICINE” (priority 2022, published 2025)
# Ends that are not written are not given here.
# Columns and labels:
# TRF1 [1] = experiment: TRF1 levels in CHA9.3 cells (immunofluorescence); format: cell-based; conditions: 0.125 mg/mL peptide, 24-hour incubation, vs DMSO control
# TLR2 = TLR2 levels in human epidermal keratinocytes after IFNγ (ELISA); format: cell-based
# Nrf2 = experiment: Subcellular localization of Nrf2 in HEKa cells (immunofluorescence); format: cell-based, human; conditions: 0.01 or 0.05 mg/mL peptide, 24 hours, vs untreated cells
# IL-8 = IL-8 secretion by HaCaT keratinocytes (ELISA), with or without IFNγ; format: cell-based, human
# [2] = test system: inflammation-related miRNAs; experiment: Expression of inflammation-related miRNAs (RT-qPCR) in HEKa cells; format: cell-based, human; conditions: 0.01 mg/mL peptide, 24 h, vs untreated basal sample
# [3] = test system: inflammation-related genes; experiment: Expression of inflammation-related genes (RT-qPCR) in HEKa cells; format: cell-based, human; conditions: 0.01 mg/mL peptide, vs untreated basal sample
# catalase = experiment: Levels or synthesis of catalase enzyme in HEKa cells (ELISA); format: cell-based, human; conditions: 24 hours
# HDFa73 (HDFa from adult) = experiment: Telomere length in HDFa cells (qPCR); format: cell-based, human; conditions: 48 hours
# TRF1 [4] = experiment: TRF1 foci per cell in HEKa cells (immunofluorescence); format: cell-based, human; conditions: basal condition, 0.005 mg/mL peptide, vs untreated
# 53BP1 = experiment: DNA damage (53BP1 foci) under oxidative stress in HEKa cells; format: cell-based, human; conditions: 100 μM H2O2, 0.01 or 0.05 mg/mL peptide, vs cells treated only with H2O2
substance,measurement,setting,value
GYYELND-NH2 [SEQ ID NO: 2-NH2],TRF1 intensity,TRF1 [1],increase in TRF1
same,decrease in levels of TLR2,"TLR2; HEKa cells after IFNγ, highest peptide concentration (0.05 mg/mL), 24 hours",19%
same,levels of TLR2,"TLR2; HEKa cells, 24 hours 10 ng/mL IFNγ, then 0.01 or 0.05 mg/mL peptide for 24 hours",lower the levels of TLR2 after exposure to IFNγ in a dose dependent-manner
same,Nrf2 translocation into the nuclei,Nrf2,Nrf2 translocation from the cytoplasm to the nuclei in a concentration dependent manner
same,secretion of IL-8 under inflammatory conditions,"IL-8; 48 hours, 0.005, 0.01 or 0.05 mg/mL together with IFNγ at 10 ng/mL, compared to positive control (IFNγ alone)","decrease, in a dose-dependent manner"
same,secretion of IL-8 under basal conditions,"IL-8; without IFNγ, all concentrations tested (SEQ ID NO: 2-NH2 0.005, 0.01, 0.05 mg/mL; SEQ ID NO: 3-NH2 0.01, 0.05 mg/mL), vs untreated cells",decreased the secretion of IL-8 in a dose-dependent manner but at a lower degree that under inflammatory conditions
same,miR-21-5p expression,[2],upregulate
same,miR-146a-5p expression,[2],upregulate
same,HMOX1 gene expression,[3]; 6 h,upregulation
same,IRAK3 gene expression,[3]; 6 h,upregulation
same,TNFAIP3 gene expression,[3]; 6 h,upregulation
same,TOLLP gene expression,[3]; 6 h,upregulation
same,CXCL8 gene expression,[3]; 24 h,downregulated
same,IL1B gene expression,[3]; 24 h,downregulated
same,IL6 gene expression,[3]; 24 h,downregulated
same,MMP3 gene expression,[3]; 24 h,downregulated
same,NFKB1 gene expression,[3]; 24 h,downregulated
same,NQO1 gene expression,[3]; 24 h,upregulated
same,TLR2 gene expression,[3]; 24 h,downregulated
same,TNF gene expression,[3]; 24 h,downregulated
same,levels of catalase,"catalase; HEKa cells, 0.005, 0.01 or 0.05 mg/mL peptide, catalase/total protein vs basal",increase the levels of catalase in a dose-dependent manner
same,increase in levels of catalase,"catalase; HEKa cells, highest concentration (0.05 mg/mL), vs basal",47%
same,telomeres longer than untreated HDFa73,HDFa73 (HDFa from adult); 0.005 mg/mL peptide,17%
same,telomeres longer than untreated HDFa73,HDFa73 (HDFa from adult); 0.01 mg/mL peptide,30%
same,TRF1 foci per cell,TRF1 [4],increase in TRF1
same,53BP1 foci per cell,53BP1,decrease in 53BP1 foci
